Values quoted from earlier work in patent publication US20220378861A1, “COMPOSITIONS AND METHODS FOR DELIVERING CANNABINOIDS USING MICRONEEDLE DEVICES TO THE SKIN” (AQUAVIT PHARMACEUTICALS, INC., priority 2019, published 2022).

Conditions: oral absorption, after extensive first pass liver metabolism

## CCCCCc1cc(O)c2c(c1)OC(C)(C)[C@@H]1CCC(C)=C[C@@H]21 [THC, tetrahydrocannabinol]
  bioavailability to the systemic circulation: 6%
